The results in this text go back to patent US20250051344A1, “BIFUNCTIONAL SELECTIVE DEGRADERS OF SMARCA2 AND THERAPEUTIC USES THEREOF” (Nurix Therapeutics, Inc., priority 2023, published 2025).

By DC50 is commonly meant the midpoint of the concentration-degradation curve. Low readings indicate a more potent degrader, high ones a less potent degrader. One may read the Dmax as the greatest extent of degradation seen. A high value points to deep degradation.

The target in assay [1] is T1, SMARCA4 (Homo sapiens, UniProt P51532).
T1 construct: endogenous in cells
T1 sequence (P51532 whole entry, species assumed): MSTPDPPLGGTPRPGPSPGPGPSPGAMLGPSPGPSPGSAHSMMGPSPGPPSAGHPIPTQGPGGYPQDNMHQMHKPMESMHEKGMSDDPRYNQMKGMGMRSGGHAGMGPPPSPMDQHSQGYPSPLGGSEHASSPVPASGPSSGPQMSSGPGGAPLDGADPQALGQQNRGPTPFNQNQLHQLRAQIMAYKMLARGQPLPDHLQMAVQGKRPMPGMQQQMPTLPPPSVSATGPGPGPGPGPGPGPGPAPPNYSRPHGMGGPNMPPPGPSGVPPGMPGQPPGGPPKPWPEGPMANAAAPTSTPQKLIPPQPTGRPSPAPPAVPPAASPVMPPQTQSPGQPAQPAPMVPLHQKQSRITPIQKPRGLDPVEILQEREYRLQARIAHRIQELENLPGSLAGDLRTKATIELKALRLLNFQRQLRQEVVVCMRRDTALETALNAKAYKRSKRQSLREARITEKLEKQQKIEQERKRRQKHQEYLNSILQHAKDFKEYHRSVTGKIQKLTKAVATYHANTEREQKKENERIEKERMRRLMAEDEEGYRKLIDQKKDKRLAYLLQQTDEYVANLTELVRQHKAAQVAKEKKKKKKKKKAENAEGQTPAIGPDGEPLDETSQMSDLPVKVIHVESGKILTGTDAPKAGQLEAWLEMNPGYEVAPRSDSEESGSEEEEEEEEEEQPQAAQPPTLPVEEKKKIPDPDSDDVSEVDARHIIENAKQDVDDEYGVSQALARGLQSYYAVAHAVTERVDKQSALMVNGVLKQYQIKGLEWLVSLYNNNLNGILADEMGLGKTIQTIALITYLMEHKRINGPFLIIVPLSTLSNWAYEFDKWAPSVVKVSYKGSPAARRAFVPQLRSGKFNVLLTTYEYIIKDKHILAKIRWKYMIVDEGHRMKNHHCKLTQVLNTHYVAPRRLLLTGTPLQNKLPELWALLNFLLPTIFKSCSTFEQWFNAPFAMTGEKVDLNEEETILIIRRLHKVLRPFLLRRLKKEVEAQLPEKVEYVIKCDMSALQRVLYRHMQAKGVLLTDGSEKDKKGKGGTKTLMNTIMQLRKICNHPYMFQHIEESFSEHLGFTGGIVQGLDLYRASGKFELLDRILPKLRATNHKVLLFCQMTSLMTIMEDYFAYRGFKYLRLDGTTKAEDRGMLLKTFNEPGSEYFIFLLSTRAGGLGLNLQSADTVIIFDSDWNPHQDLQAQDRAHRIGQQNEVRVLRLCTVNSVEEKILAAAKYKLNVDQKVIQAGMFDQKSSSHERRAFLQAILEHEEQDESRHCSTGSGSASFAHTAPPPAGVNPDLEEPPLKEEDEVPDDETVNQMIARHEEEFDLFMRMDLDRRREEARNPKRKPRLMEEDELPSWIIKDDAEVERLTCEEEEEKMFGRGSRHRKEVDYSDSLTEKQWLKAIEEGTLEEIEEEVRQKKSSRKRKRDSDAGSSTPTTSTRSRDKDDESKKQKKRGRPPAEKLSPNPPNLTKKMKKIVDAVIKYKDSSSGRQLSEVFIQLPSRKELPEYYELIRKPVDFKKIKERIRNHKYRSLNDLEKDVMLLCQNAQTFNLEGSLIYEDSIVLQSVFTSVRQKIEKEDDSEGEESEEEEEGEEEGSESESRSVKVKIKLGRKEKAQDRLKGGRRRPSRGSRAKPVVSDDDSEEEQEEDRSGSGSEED
Kind of assay: Cellular degradation assay, SMARCA4 (Table 1). It is filed as cell-based.

In assay [2] the target is T2, SMARCA2 (Homo sapiens, UniProt P51531).
T2 construct: endogenous in cells
T2 sequence (P51531 whole entry, species assumed): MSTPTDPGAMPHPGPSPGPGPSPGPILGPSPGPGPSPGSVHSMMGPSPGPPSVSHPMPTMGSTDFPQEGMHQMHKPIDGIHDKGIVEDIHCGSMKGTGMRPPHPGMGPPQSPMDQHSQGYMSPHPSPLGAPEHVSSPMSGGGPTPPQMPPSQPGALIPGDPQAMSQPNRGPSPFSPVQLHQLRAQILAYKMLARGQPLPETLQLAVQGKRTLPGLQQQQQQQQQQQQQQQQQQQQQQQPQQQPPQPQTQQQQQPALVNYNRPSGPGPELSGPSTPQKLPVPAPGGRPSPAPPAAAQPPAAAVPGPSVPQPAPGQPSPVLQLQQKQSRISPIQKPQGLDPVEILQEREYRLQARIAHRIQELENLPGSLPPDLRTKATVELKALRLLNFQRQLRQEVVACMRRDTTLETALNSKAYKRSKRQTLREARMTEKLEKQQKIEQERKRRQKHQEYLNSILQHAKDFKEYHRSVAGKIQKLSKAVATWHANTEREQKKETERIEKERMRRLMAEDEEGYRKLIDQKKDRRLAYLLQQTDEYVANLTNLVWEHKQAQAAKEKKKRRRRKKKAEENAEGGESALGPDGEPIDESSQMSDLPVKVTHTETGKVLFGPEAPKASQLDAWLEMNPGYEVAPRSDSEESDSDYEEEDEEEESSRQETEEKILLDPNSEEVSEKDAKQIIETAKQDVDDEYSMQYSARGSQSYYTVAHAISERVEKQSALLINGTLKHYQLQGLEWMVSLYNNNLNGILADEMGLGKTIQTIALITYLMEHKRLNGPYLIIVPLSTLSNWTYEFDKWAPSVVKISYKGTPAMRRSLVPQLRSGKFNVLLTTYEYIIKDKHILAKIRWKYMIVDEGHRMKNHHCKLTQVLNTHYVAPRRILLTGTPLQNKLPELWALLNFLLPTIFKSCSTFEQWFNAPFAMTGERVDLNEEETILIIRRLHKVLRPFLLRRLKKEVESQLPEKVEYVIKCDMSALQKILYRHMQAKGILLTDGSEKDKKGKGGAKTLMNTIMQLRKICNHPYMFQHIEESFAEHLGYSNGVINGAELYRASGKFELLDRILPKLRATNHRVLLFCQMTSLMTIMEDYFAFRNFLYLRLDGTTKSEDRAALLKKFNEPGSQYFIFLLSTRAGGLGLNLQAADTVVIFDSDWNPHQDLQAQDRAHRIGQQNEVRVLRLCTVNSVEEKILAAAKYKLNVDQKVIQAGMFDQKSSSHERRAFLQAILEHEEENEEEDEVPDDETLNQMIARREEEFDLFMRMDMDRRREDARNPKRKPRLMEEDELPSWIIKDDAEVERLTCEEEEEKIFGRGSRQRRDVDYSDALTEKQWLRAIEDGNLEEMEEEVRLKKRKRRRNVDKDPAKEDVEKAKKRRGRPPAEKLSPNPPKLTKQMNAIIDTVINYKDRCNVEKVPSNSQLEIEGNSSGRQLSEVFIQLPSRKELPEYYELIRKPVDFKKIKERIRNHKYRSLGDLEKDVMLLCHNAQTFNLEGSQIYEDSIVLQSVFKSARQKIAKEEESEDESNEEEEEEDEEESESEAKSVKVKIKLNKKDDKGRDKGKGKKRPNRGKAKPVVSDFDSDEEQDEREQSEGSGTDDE
Kind of assay: SMARCA2 Cellular Degradation Assay (Western blot analysis on Jess platform). It counts as cell-based. Particulars: for DC50 / Dmax: cellular degradation; for Fold Selectivity SMARCA4/2: ratio DC50 SMARCA4 / DC50 SMARCA2. A digest of the protocol: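 Lysates of cells extracted from tumors were prepared in supplemented RIPA buffer, and 5 μg total protein per capillary was analysed by capillary Western (Jess) with anti-SMARCA2 and anti-β-actin antibodies. SMARCA2 electropherogram area was background-subtracted, normalized to actin, and expressed as percent remaining versus vehicle control.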
(In western blotting, separated proteins are transferred to a membrane and probed.)

As for `O=C1CCC(c2ccc(N3CCC(F)(CN4CCC(NC(=O)C5(c6ccccc6)CCN(c6cnnc(-c7ccccc7O)c6)CC5)CC4)CC3)cc2)C(=O)N1` (racemic) [Example 179, rac-N-{1-[(1-{4-[(3R)-2,6-dioxopiperidin-3-yl]phenyl}-4-fluoropiperidin-4-yl)methyl]piperidin-4-yl}-1-[6-(2-hydroxyphenyl)pyridazin-4-yl]-4-phenylpiperidine-4-carboxamide], in assay [1], the DC50 was 211 nM and the greatest degradation seen (Dmax) was found to be 57.7%. Further, in assay [2], it took 17.9 nM to reach half-maximal degradation (DC50), the Dmax was 83.4% and the “Fold Selectivity SMARCA4/2” value amounted to 12.

In assay [1], `O=C1CCC(c2ccc(N3CC[C@H](CCN4CC5(C4)CN(C(=O)C4(c6ccccc6)CCN(c6cnnc(-c7ccccc7O)c6)CC4)C5)C3)nc2)C(=O)N1` (mixture of isomers) [Example 181, (3RS)-3-{6-[(3S)-3-[2-(6-{1-[6-(2-hydroxyphenyl)pyridazin-4-yl]-4-phenylpiperidine-4-carbonyl}-2,6-diazaspiro[3.3]heptan-2-yl)ethyl]pyrrolidin-1-yl]pyridin-3-yl}piperidine-2,6-dione] returned a half-maximal degradation concentration (DC50) of 317 nM and a Dmax of 42.3%. Also, in assay [2], the DC50 was determined as 19.6 nM, the Dmax is 72.3% and the “Fold Selectivity SMARCA4/2” value stood at 16.

In assay [1], `CCN(C(=O)C1(c2ccccc2)CCN(c2cnnc(-c3ccccc3O)c2)CC1)C1CCN(C(=O)CN2CCN(c3ccc(C4CCC(=O)NC4=O)cc3)CC2)CC1` (racemic) [Example 185, rac-N-{1-[2-(4-{4-[(3R)-2,6-dioxopiperidin-3-yl]phenyl}piperazin-1-yl)acetyl]piperidin-4-yl}-N-ethyl-1-[6-(2-hydroxyphenyl)pyridazin-4-yl]-4-phenylpiperidine-4-carboxamide] gave a half-maximal degradation concentration (DC50) of 143 nM and a Dmax of 58.5%. Moreover, in assay [2], the DC50 came out at 7.13 nM, the greatest degradation seen (Dmax) worked out at 88.8% and the “Fold Selectivity SMARCA4/2” value is on record as 20.

Consider `O=C1CCC(c2c(F)cc(N3CCC(CN4CC[C@@H](NC(=O)C5(c6ccccc6)CCN(c6cnnc(-c7ccccc7O)c6)CC5)CC45CCC5)CC3)cc2F)C(=O)N1` (mixture of isomers) [Example 188, N-[(8RS&)-5-[(1-{4-[(3RS)-2,6-dioxopiperidin-3-yl]-3,5-difluorophenyl}piperidin-4-yl)methyl]-5-azaspiro[3.5]nonan-8-yl]-1-[6-(2-hydroxyphenyl)pyridazin-4-yl]-4-phenylpiperidine-4-carboxamide], for which, in assay [1], half-maximal degradation (DC50) was put at 245 nM and the Dmax amounted to 57.8%. For the same compound, in assay [2], the 50% degradation concentration (DC50) is 1.71 nM, the Dmax is 90.6% and the “Fold Selectivity SMARCA4/2” value is 143.

In assay [1], `O=C1CCC(c2c(F)cc(N3CCC(CN4CCC5(CC4)CN(C(=O)C4(c6ccccc6)CCN(c6cnnc(-c7ccccc7O)c6)CC4)C5)CC3)cc2F)C(=O)N1` (racemic) [Example 193, rac-(3R)-3-(2,6-difluoro-4-{4-[(2-{1-[6-(2-hydroxyphenyl)pyridazin-4-yl]-4-phenylpiperidine-4-carbonyl}-2,7-diazaspiro[3.5]nonan-7-yl)methyl]piperidin-1-yl}phenyl)piperidine-2,6-dione] returned a 50% degradation concentration (DC50) of 13.2 nM and a Dmax of 84.2%. In addition, in assay [2], the 50% degradation concentration (DC50) is 1.24 nM, the greatest degradation seen (Dmax) is 94.9% and the “Fold Selectivity SMARCA4/2” value came to 11.

Turning to `COC1(C(=O)N(C)C2CCN(CCC3CCN(c4ccc(C5CCC(=O)NC5=O)cc4)CC3)CC2)CCN(c2cnnc(-c3ccccc3O)c2)CC1` (racemic) [Example 195, rac-N-(1-(2-(1-(4-(2,6-dioxopiperidin-3-yl)phenyl)piperidin-4-yl)ethyl)piperidin-4-yl)-1-(6-(2-hydroxyphenyl)pyridazin-4-yl)-4-methoxy-n-methylpiperidine-4-carboxamide], in assay [1], the greatest degradation seen (Dmax) was determined as 20.3%. In addition, in assay [2], the 50% degradation concentration (DC50) amounted to 13.7 nM, the Dmax was determined as 70% and the “Fold Selectivity SMARCA4/2” value amounted to 727.

`CN(C(=O)C1(c2ccccc2)CCN(c2cnnc(-c3ccccc3O)c2)CC1)C1CCN([C@@H]2COC3(CCN(c4ccc([C@H]5CCC(=O)NC5=O)cc4)CC3)C2)CC1` (single isomer, unassigned) [Example 148] had a maximal degradation (Dmax) in assay [1] of 41.4%. Further, in assay [2], half-maximal degradation (DC50) was put at 6.84 nM, the Dmax was 83% and the “Fold Selectivity SMARCA4/2” value is on record as 1462.

Consider `CN(C(=O)C1(c2ccccc2)CCN(c2cnnc(-c3ccccc3O)c2)CC1)C1CCN([C@H]2COC3(CCN(c4ccc([C@H]5CCC(=O)NC5=O)cc4)CC3)C2)CC1` (single isomer, unassigned) [Example 149], for which the Dmax in assay [1] amounted to 41%. Further, in assay [2], the 50% degradation concentration (DC50) is 7.34 nM, the greatest degradation seen (Dmax) came to 84.9% and the “Fold Selectivity SMARCA4/2” value is 1362.

For `O=C1CC[C@@H](c2ccc(N3CCC(CN4CC5(C4)CN(C(=O)C4(c6ccccc6)CCN(c6cnnc(-c7ccccc7O)c6)CC4)C5)CC3)cc2)C(=O)N1` [Example 8, (3S)-3-(4-{4-[(6-{1-[6-(2-hydroxyphenyl)pyridazin-4-yl]-4-phenylpiperidine-4-carbonyl}-2,6-diazaspiro[3.3]heptan-2-yl)methyl]piperidin-1-yl}phenyl)piperidine-2,6-dione], the Dmax in assay [1] was determined as 44.6%. Further, in assay [2], the 50% degradation concentration (DC50) is 41.4 nM, the Dmax worked out at 75.1% and the “Fold Selectivity SMARCA4/2” value was 241.66.

In assay [1], `O=C1CC[C@@H](c2ccc(N3CCC(CN4CCC5(C4)CN(C(=O)C4(c6ccccc6)CCN(c6cnnc(-c7ccccc7O)c6)CC4)C5)CC3)cc2)C(=O)N1` [Example 9, (3S)-3-(4-{4-[(2-{1-[6-(2-hydroxyphenyl)pyridazin-4-yl]-4-phenylpiperidine-4-carbonyl}-2,6-diazaspiro[3.4]octan-6-yl)methyl]piperidin-1-yl}phenyl)piperidine-2,6-dione] returned a DC50 of 6720 nM and a Dmax of 44.7%. In addition, in assay [2], the DC50 amounted to 19.9 nM, the Dmax came to 75.2% and the “Fold Selectivity SMARCA4/2” value was 336.59.

Consider `O=C1CC[C@@H](c2ccc(N3CCC(CN4CCCC(CNC(=O)C5(c6ccccc6)CCN(c6cnnc(-c7ccccc7O)c6)CC5)C4)CC3)cc2)C(=O)N1` (stereo partly drawn) [Example 10, N-({1-[(1-{4-[(3S)-2,6-dioxopiperidin-3-yl]phenyl}piperidin-4-yl)methyl]piperidin-3-yl}methyl)-1-[6-(2-hydroxyphenyl)pyridazin-4-yl]-4-phenylpiperidine-4-carboxamide], for which the Dmax in assay [1] came to 25.6%. Besides, in assay [2], half-maximal degradation (DC50) was put at 80.1 nM, the greatest degradation seen (Dmax) came to 59.3% and the “Fold Selectivity SMARCA4/2” value is recorded as 124.82.

In assay [1], `O=C1CC[C@H](c2ccc(N3CCC(CN4CC5(C4)CN(C(=O)C4(c6ccccc6)CCN(c6cnnc(-c7ccccc7O)c6)CC4)C5)CC3)cc2)C(=O)N1` [Example 15, (3R)-3-(4-{4-[(6-{1-[6-(2-hydroxyphenyl)pyridazin-4-yl]-4-phenylpiperidine-4-carbonyl}-2,6-diazaspiro[3.3]heptan-2-yl)methyl]piperidin-1-yl}phenyl)piperidine-2,6-dione] gave a half-maximal degradation concentration (DC50) of 5030 nM and a maximal degradation (Dmax) of 49.3%. Further, in assay [2], the DC50 worked out at 14.8 nM, the Dmax turned out to be 79.9% and the “Fold Selectivity SMARCA4/2” value was found to be 340.31.

As for `O=C1CC[C@H](c2ccc(N3CCC(CN4CC5(CCN(C(=O)C6(c7ccccc7)CCN(c7cnnc(-c8ccccc8O)c7)CC6)C5)C4)CC3)cc2)C(=O)N1` [Example 16, (3R)-3-(4-{4-[(6-{1-[6-(2-hydroxyphenyl)pyridazin-4-yl]-4-phenylpiperidine-4-carbonyl}-2,6-diazaspiro[3.4]octan-2-yl)methyl]piperidin-1-yl}phenyl)piperidine-2,6-dione], in assay [1], half-maximal degradation (DC50) was put at 5020 nM and the greatest degradation seen (Dmax) was 56.1%. In assay [2], the DC50 was determined as 7.48 nM, the greatest degradation seen (Dmax) was 82.6% and the “Fold Selectivity SMARCA4/2” value is recorded as 671.32.

As to `O=C1CC[C@H](c2ccc(N3CCC(CN4CCC5(C4)CN(C(=O)C4(c6ccccc6)CCN(c6cnnc(-c7ccccc7O)c6)CC4)C5)CC3)cc2)C(=O)N1` [Example 17, (3R)-3-(4-{4-[(2-{1-[6-(2-hydroxyphenyl)pyridazin-4-yl]-4-phenylpiperidine-4-carbonyl}-2,6-diazaspiro[3.4]octan-6-yl)methyl]piperidin-1-yl}phenyl)piperidine-2,6-dione], in assay [1], the half-maximal degradation concentration (DC50) amounted to 4370 nM and the Dmax worked out at 54.2%. In addition, in assay [2], the DC50 came to 13.9 nM, the greatest degradation seen (Dmax) stood at 78% and the “Fold Selectivity SMARCA4/2” value is on record as 314.31.

Regarding `CC1(C(=O)N2CC3(CN(CC4CCN(c5ccc([C@H]6CCC(=O)NC6=O)cc5)CC4)C3)C2)CCN(c2cnnc(-c3ccccc3O)c2)CC1` [Example 23, (3R)-3-(4-{4-[(6-{1-[6-(2-hydroxyphenyl)pyridazin-4-yl]-4-methylpiperidine-4-carbonyl}-2,6-diazaspiro[3.3]heptan-2-yl)methyl]piperidin-1-yl}phenyl)piperidine-2,6-dione], the maximal degradation (Dmax) in assay [1] was found to be 39.1%. In assay [2], it took 78.5 nM to reach half-maximal degradation (DC50), the Dmax was 55.9% and the “Fold Selectivity SMARCA4/2” value worked out at 127.44.

As for `O=C1CC[C@H](c2ccc(N3CCC(CN4CC5(C4)CN(C(=O)C4(C6CC6)CCN(c6cnnc(-c7ccccc7O)c6)CC4)C5)CC3)cc2)C(=O)N1` [Example 24, (3R)-3-(4-{4-[(6-{4-cyclopropyl-1-[6-(2-hydroxyphenyl)pyridazin-4-yl]piperidine-4-carbonyl}-2,6-diazaspiro[3.3]heptan-2-yl)methyl]piperidin-1-yl}phenyl)piperidine-2,6-dione], the Dmax in assay [1] stood at 31.7%. In assay [2], half-maximal degradation (DC50) was put at 62.7 nM, the Dmax was 56.5% and the “Fold Selectivity SMARCA4/2” value is listed as 159.52.
